From patent US10596164B2, “Anti-clostridium compounds” (Nederlandse Organisatie voor …, priority 2014, dated 2020)
Values after ≈ are worked out from the molar mass of the structure shown. Like-named read-outs stand apart in the source and are kept apart here. Marks after values point to notes of the source that are not given here.

Experiments:
[1] = system: C. difficile ATCC 43599 spores; experiment: MIC test with asymmetrical compounds on C. difficile spores; type: cell-based, Clostridium difficile; settings: for MIC spores: Table 3; for MIC: Clostridioides difficile
Method: (§1) Growth inhibition experiments were performed according to the following protocol: […] Microtiter plate wells were filled with 495 microliter of this suspension to which 5 microliter of selected compounds dissolved in DMSO was added (final concentration of each compound was 10 microgram per ml). This was all performed in an anaerobic cabinet. After filling the microtiter plate was sealed and incubated for 22 hours at 37° C. Inhibiting compounds were selected by visually determining growth inhibition. According to the same protocol as in Example 3 asymmetrical compounds were tested on their inhibitory effect of C. difficile, but also on other bacterial species, such as S. aureus and B. cereus. In the below tables the compounds and the MIC values that have been found for the various micro-organisms are listed. In the tests described in Table 4 and 5 the medium indicated as 'flora' is the SIEM medium described in […], Schols H A, Nauta A, Schoterman […]. High-throughput analysis of the impact of antibiotics on the human intestinal microbiota composition.

[2] = system: Staphylococcus aureus ATCC 6538; experiment: MIC test with asymmetrical compounds on S. aureus; type: cell-based
Method: as §1

[3] = system: C. difficile ATCC 43599 vegetative cells; experiment: MIC test with asymmetrical compounds on C. difficile vegetative cells; type: cell-based, Clostridium difficile; settings: for MIC Veg. cells: Table 3; for MIC: Clostridioides difficile
Method: as §1

[4] = system: Bacillus cereus ATCC 11778; experiment: MIC test with asymmetrical compounds on B. cereus; type: cell-based
Method: as §1

[5] = spores, tested concentrations 10 μg/ml-0.003 μg/ml if not indicated otherwise
[6] = Table 4, SAB model medium, tested concentrations 1.2 μg/ml-0.03 μg/ml if not indicated otherwise
[7] = ATCC6538, Table 5, read-out: MIC S. aureus ATCC 6538
[8] = vegetative cells, tested concentrations 10 μg/ml-0.003 μg/ml if not indicated otherwise
[9] = Table 4, flora (SIEM) medium, tested concentrations 1.2 μg/ml-0.03 μg/ml if not indicated otherwise
[10] = ATCC11778, Table 5, read-out: MIC B. cereus ATCC 11778
[11] = ATCC43599, 22 h, Table 4, SAB model medium, tested concentrations 1.2 μg/ml-0.03 μg/ml if not indicated otherwise, read-out: MIC spores SAB model medium
[12] = ATCC43599, Table 3, spores, tested concentrations 10 μg/ml-0.003 μg/ml if not indicated otherwise, read-out: MIC spores
[13] = ATCC43599, Table 4, flora (SIEM) medium, tested concentrations 1.2 μg/ml-0.03 μg/ml if not indicated otherwise, read-out: MIC spores flora
[14] = ATCC43599, 22 h, Table 4, SAB model medium, tested concentrations 1.2 μg/ml-0.03 μg/ml if not indicated otherwise, read-out: MIC veg. cells SAB model medium
[15] = ATCC43599, Table 3, vegetative cells, tested concentrations 10 μg/ml-0.003 μg/ml if not indicated otherwise, read-out: MIC Veg. cells
[16] = ATCC43599, Table 4, flora (SIEM) medium, tested concentrations 1.2 μg/ml-0.03 μg/ml if not indicated otherwise, read-out: MIC veg. cells flora

| MIC [2, 7] [µg/mL] | MIC [4, 10] [µg/mL] | MIC [1, 11] [µg/mL] | MIC [1, 12] [µg/mL] | MIC [1, 13] [µg/mL] | MIC [3, 14] [µg/mL] | MIC [3, 15] [µg/mL] | MIC [3, 16] [µg/mL] | Structure (SMILES) | other results |
| --- | --- | --- | --- | --- | --- | --- | --- | --- | --- |
| > 100 | > 100 |  |  |  |  |  |  | O=C1NC(=O)c2ccc3c4c(ccc1c24)C(=O)N(c1ccccc1)C3=O [20141155PBmol19] | MIC spores [1, 5]: 0.007 to 0.01 µg/mL; MIC spores SAB model medium [1, 6]: <0.03 µg/mL; MIC Veg. cells [3, 8]: 0.01 to 0.03 µg/mL; MIC veg. cells SAB model medium [3, 6]: <0.03 µg/mL; MIC veg. cells flora [3, 9]: 0.15 to 0.3 µg/mL |
| > 100 | 100 (≈ 270 µM) | 0.07 to 0.15 (≈ 0.189 to 0.405 µM) | 0.03 to 0.07 (≈ 0.081 to 0.189 µM) | > 1.2 | 0.07 to 0.15 (≈ 0.189 to 0.405 µM) | 0.07 to 0.15 (≈ 0.189 to 0.405 µM) | 0.3 to 0.6 (≈ 0.81 to 1.62 µM) | Cc1ccc(C)c(N2C(=O)c3ccc4c5c(ccc(c35)C2=O)C(=O)NC4=O)c1 [20141155PBmol23] |  |
| > 100 | 40 (≈ 114 µM) | 0.03 to 0.07 (≈ 0.0852 to 0.199 µM) | 0.01 to 0.03 (≈ 0.0284 to 0.0852 µM) | 0.3 to 0.6 (≈ 0.852 to 1.7 µM) |  | 0.03 to 0.07 (≈ 0.0852 to 0.199 µM) | 0.15 to 0.3 (≈ 0.426 to 0.852 µM) | CC(=O)OCCN1C(=O)c2ccc3c4c(ccc(c24)C1=O)C(=O)NC3=O [20141155PBmol21] |  |
| 40 (≈ 129 µM) | 4 (≈ 12.9 µM) | 0.3 to 0.6 (≈ 0.967 to 1.93 µM) | 0.15 to 0.3 (≈ 0.483 to 0.967 µM) | 0.6 to 1.2 (≈ 1.93 to 3.87 µM) | 0.3 to 0.6 (≈ 0.967 to 1.93 µM) | 0.15 to 0.3 (≈ 0.483 to 0.967 µM) | 0.07 to 0.15 (≈ 0.226 to 0.483 µM) | O=C1NC(=O)c2ccc3c4c(ccc1c24)C(=O)N(CCO)C3=O [20141155PBmol57] |  |
| > 100 | > 100 |  |  |  |  |  |  | O=C1NC(=O)c2ccc3c4c(ccc1c24)C(=O)N(Cc1cccnc1)C3=O [20141155PBmol13] |  |
| 10 (≈ 24.9 µM) | 4 (≈ 9.94 µM) | 0.07 to 0.15 (≈ 0.174 to 0.373 µM) | 0.03 to 0.07 (≈ 0.0746 to 0.174 µM) | 0.6 to 1.2 (≈ 1.49 to 2.98 µM) | 0.07 to 0.15 (≈ 0.174 to 0.373 µM) | 0.07 to 0.15 (≈ 0.174 to 0.373 µM) | 0.6 to 1.2 (≈ 1.49 to 2.98 µM) | COc1ccc(OC)c(N2C(=O)c3ccc4c5c(ccc(c35)C2=O)C(=O)NC4=O)c1 [20141155PBmol46] |  |
| 40 (≈ 112 µM) | 4 (≈ 11.2 µM) | 0.3 to 0.6 (≈ 0.837 to 1.67 µM) | 0.15 to 0.3 (≈ 0.419 to 0.837 µM) | > 1.2 | 0.3 to 0.6 (≈ 0.837 to 1.67 µM) | 0.3 to 0.6 (≈ 0.837 to 1.67 µM) | 0.15 to 0.3 (≈ 0.419 to 0.837 µM) | O=C1NC(=O)c2ccc3c4c(ccc1c24)C(=O)N(c1ccccc1O)C3=O [20141155PBmol10] |  |
|  |  | < 0.3 | < 0.3 | < 0.3 | < 0.3 | < 0.3 | < 0.3 | Cc1ncc([N+](=O)[O-])n1CCO [Metronadizol, reference compound] |  |
|  |  |  |  | 0.6 to 1.2 (≈ 1.75 to 3.51 µM) |  |  |  | O=C1NC(=O)c2ccc3c4c(ccc1c24)C(=O)N(c1ccccc1)C3=O [4456-3445 (6739753)] | MIC spores [1, 5]: <0.3* ug/ml; MIC spores SAB model medium [1, 6]: <0.3 µg/mL; MIC Veg. cells [3, 8]: <0.3* ug/ml; MIC veg. cells SAB model medium [3, 6]: <0.3 µg/mL; MIC veg. cells flora [3, 9]: 0.6 to 1.2 µg/mL |
| 40 (≈ 112 µM) | 4 (≈ 11.2 µM) | 0.07 to 0.15 (≈ 0.195 to 0.419 µM) | 0.03 to 0.07 (≈ 0.0837 to 0.195 µM) | 0.3 to 0.6 (≈ 0.837 to 1.67 µM) | 0.07 to 0.15 (≈ 0.195 to 0.419 µM) | 0.07 to 0.15 (≈ 0.195 to 0.419 µM) | 0.6 to 1.2 (≈ 1.67 to 3.35 µM) | O=C1NC(=O)c2ccc3c4c(ccc1c24)C(=O)N(c1ccc(O)cc1)C3=O [20141155PBmol37] |  |
|  |  | 0.3 to 0.6 (≈ 0.847 to 1.69 µM) | 0.3 to 0.6 (≈ 0.847 to 1.69 µM) | 0.6 to 1.2 (≈ 1.69 to 3.39 µM) | 0.6 to 1.2 (≈ 1.69 to 3.39 µM) | 0.3 to 0.6 (≈ 0.847 to 1.69 µM) | 0.3 to 0.6 (≈ 0.847 to 1.69 µM) | O=C1c2ccc3c4c(ccc(c24)C(=O)N1CCO)C(=O)N(CCO)C3=O [A0547/0025269] |  |
|  |  |  |  |  |  |  |  | CN[C@H](CC(C)C)C(=O)N[C@H]1C(=O)N[C@@H](CC(N)=O)C(=O)N[C@H]2C(=O)N[C@H]3C(=O)N[C@H](C(=O)N[C@H](C(=O)O)c4cc(O)cc(O)c4-c4cc3ccc4O)[C@H](O)c3ccc(c(Cl)c3)Oc3cc2cc(c3O[C@@H]2O[C@H](CO)[C@@H](O)[C@H](O)[C@H]2O[C@H]2C[C@](C)(N)[C@H](O)[C@H](C)O2)Oc2ccc(cc2Cl)[C@H]1O [Vancomycin, reference compound] | MIC ([1]; ATCC43599, 22 h, read-out: MIC spores SAB model medium): < 0.3 µg/mL; MIC ([1]; ATCC43599, read-out: MIC spores): < 0.3 µg/mL; MIC ([1]; ATCC43599, read-out: MIC spores flora): < 0.3 µg/mL; MIC ([2]; ATCC6538, read-out: MIC S. aureus ATCC 6538): 1 µg/mL (≈ 0.69 µM); MIC ([3]; ATCC43599, 22 h, read-out: MIC veg. cells SAB model medium): < 0.3 µg/mL; MIC ([3]; ATCC43599, read-out: MIC Veg. cells): < 0.3 µg/mL; MIC ([3]; ATCC43599, read-out: MIC veg. cells flora): < 0.3 µg/mL; MIC ([4]; ATCC11778, read-out: MIC B. cereus ATCC 11778): 1 µg/mL (≈ 0.69 µM) |
| > 100 | 4 (≈ 11.8 µM) | 0.07 to 0.15 (≈ 0.207 to 0.443 µM) | 0.03 to 0.07 (≈ 0.0887 to 0.207 µM) | 0.15 to 0.3 (≈ 0.443 to 0.887 µM) | 0.07 to 0.15 (≈ 0.207 to 0.443 µM) | 0.07 to 0.15 (≈ 0.207 to 0.443 µM) | 0.15 to 0.3 (≈ 0.443 to 0.887 µM) | O=C1NC(=O)c2ccc3c4c(ccc1c24)C(=O)N(CCCCO)C3=O [20141155PBmol41] |  |
| 40 (≈ 117 µM) | 4 (≈ 11.7 µM) | 0.07 to 0.15 (≈ 0.204 to 0.437 µM) | 0.07 to 0.15 (≈ 0.204 to 0.437 µM) | 0.3 to 0.6 (≈ 0.874 to 1.75 µM) | 0.07 to 0.15 (≈ 0.204 to 0.437 µM) | 0.07 to 0.15 (≈ 0.204 to 0.437 µM) | 0.15 to 0.3 (≈ 0.437 to 0.874 µM) | O=C1NC(=O)c2ccc3c4c(ccc1c24)C(=O)N(c1ccccn1)C3=O [20141155PBmol18] |  |
| > 100 | 4 (≈ 10.4 µM) | 0.03 to 0.07 (≈ 0.0781 to 0.182 µM) | 0.01 to 0.03 (≈ 0.026 to 0.0781 µM) | > 1.2 | 0.03 to 0.07 (≈ 0.0781 to 0.182 µM) | 0.01 to 0.03 (≈ 0.026 to 0.0781 µM) | 0.3 to 0.6 (≈ 0.781 to 1.56 µM) | CC(=O)c1cccc(N2C(=O)c3ccc4c5c(ccc(c35)C2=O)C(=O)NC4=O)c1 [20141155PBmol17] |  |
| > 100 | > 100 |  |  |  |  |  |  | O=C1NC(=O)c2ccc3c4c(ccc1c24)C(=O)N(c1ccncc1)C3=O [20141155PBmol20] |  |
| > 100 | > 100 | 0.03 to 0.07 (≈ 0.0856 to 0.2 µM) | 0.01 to 0.03 (≈ 0.0285 to 0.0856 µM) | 0.3 to 0.6 (≈ 0.856 to 1.71 µM) | 0.03 to 0.07 (≈ 0.0856 to 0.2 µM) | 0.03 to 0.07 (≈ 0.0856 to 0.2 µM) | 0.3 to 0.6 (≈ 0.856 to 1.71 µM) | O=C1NC(=O)c2ccc3c4c(ccc1c24)C(=O)N(CC1CCCO1)C3=O (stereo not shown) [20141155PBmol30] |  |
| > 100 | 10 (≈ 27.9 µM) | 0.07 to 0.15 (≈ 0.195 to 0.419 µM) | 0.03 to 0.07 (≈ 0.0837 to 0.195 µM) | 0.6 to 1.2 (≈ 1.67 to 3.35 µM) | 0.15 to 0.3 (≈ 0.419 to 0.837 µM) | 0.07 to 0.15 (≈ 0.195 to 0.419 µM) | 0.6 to 1.2 (≈ 1.67 to 3.35 µM) | O=C1NC(=O)c2ccc3c4c(ccc1c24)C(=O)N(c1cccc(O)c1)C3=O [20141155PBmol08] |  |
